Laboratory results taken from patent US20250368666A1, “INDAZOLE COMPOUNDS” (TYRA BIOSCIENCES, INC., priority 2022, published 2025).

Tests used:
FGFR3 = molecular target: T1, FGFR3 (Homo sapiens, UniProt P22607); experiment: Kinase binding assay (kinase-tagged T7 phage, affinity beads, qPCR), Kd; settings: read-out: FGFR3 (Kd nM)
T1 construct: made in house; host or cells: E. coli (BL21-derived), T7 phage
Outline: (§1)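 Kd obtained by Levenberg–Marquardt Hill-equation fit (slope −1) to qPCR-measured kinase retained on ligand-coated streptavidin beads.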

FGFR1 = molecular target: T2, FGFR1 (Homo sapiens, UniProt P11362); experiment: as above; settings: read-out: FGFR1 (Kd nM)
T2 construct: made in house; host or cells: E. coli (BL21-derived), T7 phage
Outline: as §1

[1] = tested on: KATO-III cell line (FGFR2 amplification); experiment: Cancer cell line cell viability assay (Cell Titer-Glo), 72 hr; assay type: cell-based; settings: Homo sapiens, KATO III
Outline: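 5,000-20,000 cells/well o/n; cpd 9-pt 4x dil from 3 μM, n=3; 37° C/5% CO2; CTG 2.0 lumi; % DMSO ctrl; 4PL IC50.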

[2] = tested on: KG-1 cell line (FGFR 1-fusion); experiment: as above; assay type: cell-based; settings: Homo sapiens, KG-1, KG-1 cell line (FGFR1-fusion)
Outline: (§2)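 Cells were seeded at 5,000–20,000 per well, then exposed to a 9-point, 4-fold dilution series from 3 μM top concentration in triplicate at 37° C. Exposure was 120 h for MDA-MB-453 and HuH7 and 72 h for KG-1 and RT112/84. Viability was read as ATP by Cell Titer-Glo 2.0, expressed as % of DMSO control, and fitted by 4-parameter IC50.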

[3] = tested on: RT112/84 cell line (FGFR3-fusion); experiment: as above; assay type: cell-based; settings: Homo sapiens, RT112/84, RT112/84 cell line (FGFR3-fusion)
Outline: as §2

[4] = tested on: MDA-MB-453 cell line (FGFR4-Y367C); experiment: Cancer cell line cell viability assay (Cell Titer-Glo), 120 hr; assay type: cell-based; settings: Homo sapiens
Outline: as §2

FGFR3 (V555M) = molecular target: T3, FGFR3 (V555M) (Homo sapiens, UniProt P22607, V555M); experiment: Kinase binding assay (kinase-tagged T7 phage, affinity beads, qPCR), Kd; settings: V555M mutant; read-out: FGFR3 (V555M) (Kd nM)
T3 construct: made in house; host or cells: E. coli (BL21-derived), T7 phage
Outline: as §1

FGFR2 = molecular target: T4, FGFR2 (Homo sapiens, UniProt P21802); experiment: as above; settings: read-out: FGFR2 (Kd nM)
T4 construct: made in house; host or cells: E. coli (BL21-derived), T7 phage
Outline: as §1

FGFR4 = molecular target: T5, FGFR4 (Homo sapiens, UniProt P22455); experiment: as above; settings: read-out: FGFR4 (Kd nM)
T5 construct: made in house; host or cells: E. coli (BL21-derived), T7 phage
Outline: as §1

[5] = tested on: HuH7 cell line (FGF19 amplification); experiment: Cancer cell line cell viability assay (Cell Titer-Glo), 120 hr; assay type: cell-based; settings: Homo sapiens, Huh-7
Outline: as §2

T1 sequence (P22607 23-806): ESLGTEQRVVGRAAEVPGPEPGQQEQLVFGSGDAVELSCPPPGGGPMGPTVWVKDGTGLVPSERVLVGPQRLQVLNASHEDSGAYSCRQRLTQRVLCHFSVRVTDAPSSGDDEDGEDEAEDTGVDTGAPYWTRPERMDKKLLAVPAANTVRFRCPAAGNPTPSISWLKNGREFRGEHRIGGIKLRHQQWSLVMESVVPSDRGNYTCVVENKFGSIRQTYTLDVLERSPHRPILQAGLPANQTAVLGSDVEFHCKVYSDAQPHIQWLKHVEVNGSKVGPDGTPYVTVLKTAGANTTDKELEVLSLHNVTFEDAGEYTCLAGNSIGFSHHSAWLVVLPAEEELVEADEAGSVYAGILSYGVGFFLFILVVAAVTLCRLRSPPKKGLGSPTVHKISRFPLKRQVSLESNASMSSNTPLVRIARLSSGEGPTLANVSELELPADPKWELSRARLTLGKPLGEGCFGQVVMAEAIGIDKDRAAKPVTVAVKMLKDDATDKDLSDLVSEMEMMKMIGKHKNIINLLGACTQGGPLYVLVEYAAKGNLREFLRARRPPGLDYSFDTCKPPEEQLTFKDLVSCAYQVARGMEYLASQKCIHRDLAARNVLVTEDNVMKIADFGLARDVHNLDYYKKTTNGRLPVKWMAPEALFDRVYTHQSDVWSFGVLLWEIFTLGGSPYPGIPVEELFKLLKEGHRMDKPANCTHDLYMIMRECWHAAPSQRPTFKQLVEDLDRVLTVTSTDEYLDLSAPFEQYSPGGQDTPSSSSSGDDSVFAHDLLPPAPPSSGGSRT
T4 sequence (P21802 22-821): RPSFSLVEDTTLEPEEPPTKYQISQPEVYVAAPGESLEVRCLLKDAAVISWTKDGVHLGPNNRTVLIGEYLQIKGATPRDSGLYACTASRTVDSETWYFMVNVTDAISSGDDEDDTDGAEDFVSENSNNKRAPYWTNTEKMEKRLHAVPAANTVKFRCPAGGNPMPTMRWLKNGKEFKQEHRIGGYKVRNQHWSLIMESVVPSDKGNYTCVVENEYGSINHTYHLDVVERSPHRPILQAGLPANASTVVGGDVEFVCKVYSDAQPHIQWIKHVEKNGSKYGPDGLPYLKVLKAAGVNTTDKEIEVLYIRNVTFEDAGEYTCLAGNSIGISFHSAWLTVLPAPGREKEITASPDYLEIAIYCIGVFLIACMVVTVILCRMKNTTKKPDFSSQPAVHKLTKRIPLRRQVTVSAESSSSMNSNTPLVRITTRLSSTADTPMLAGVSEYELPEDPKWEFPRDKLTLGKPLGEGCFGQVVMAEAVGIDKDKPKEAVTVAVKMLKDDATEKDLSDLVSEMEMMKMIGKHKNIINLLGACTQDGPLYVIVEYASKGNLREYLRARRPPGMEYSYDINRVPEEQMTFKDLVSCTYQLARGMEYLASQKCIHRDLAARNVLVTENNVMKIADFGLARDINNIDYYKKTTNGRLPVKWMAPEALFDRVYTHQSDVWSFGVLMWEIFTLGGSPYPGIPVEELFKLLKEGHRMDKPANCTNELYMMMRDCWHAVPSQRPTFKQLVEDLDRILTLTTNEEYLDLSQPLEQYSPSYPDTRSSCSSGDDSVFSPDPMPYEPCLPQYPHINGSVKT
T3 sequence (P22607 23-806 V555M): as the sequence (P22607 23-806) above, with V533M counted along it
T5 sequence (P22455 22-802): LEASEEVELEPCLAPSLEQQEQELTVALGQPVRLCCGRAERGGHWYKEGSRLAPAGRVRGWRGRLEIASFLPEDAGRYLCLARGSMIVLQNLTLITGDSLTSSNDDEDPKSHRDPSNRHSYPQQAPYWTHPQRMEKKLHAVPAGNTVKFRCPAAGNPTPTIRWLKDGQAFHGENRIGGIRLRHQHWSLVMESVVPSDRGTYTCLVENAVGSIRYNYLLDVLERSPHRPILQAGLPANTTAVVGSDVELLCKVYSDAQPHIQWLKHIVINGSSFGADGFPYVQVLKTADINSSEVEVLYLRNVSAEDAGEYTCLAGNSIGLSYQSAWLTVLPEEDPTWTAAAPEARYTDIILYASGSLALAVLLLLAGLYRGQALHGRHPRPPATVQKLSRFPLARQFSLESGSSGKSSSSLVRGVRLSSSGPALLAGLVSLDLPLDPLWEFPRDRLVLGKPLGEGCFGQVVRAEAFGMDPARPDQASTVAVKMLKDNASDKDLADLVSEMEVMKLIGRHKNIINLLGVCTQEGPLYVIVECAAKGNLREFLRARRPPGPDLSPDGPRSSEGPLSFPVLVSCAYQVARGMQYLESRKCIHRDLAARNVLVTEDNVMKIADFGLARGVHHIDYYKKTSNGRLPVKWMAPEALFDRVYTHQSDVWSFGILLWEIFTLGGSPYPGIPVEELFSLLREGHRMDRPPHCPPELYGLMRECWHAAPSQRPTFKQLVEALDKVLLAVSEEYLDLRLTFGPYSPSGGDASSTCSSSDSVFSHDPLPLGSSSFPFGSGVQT
T2 sequence (P11362 22-822): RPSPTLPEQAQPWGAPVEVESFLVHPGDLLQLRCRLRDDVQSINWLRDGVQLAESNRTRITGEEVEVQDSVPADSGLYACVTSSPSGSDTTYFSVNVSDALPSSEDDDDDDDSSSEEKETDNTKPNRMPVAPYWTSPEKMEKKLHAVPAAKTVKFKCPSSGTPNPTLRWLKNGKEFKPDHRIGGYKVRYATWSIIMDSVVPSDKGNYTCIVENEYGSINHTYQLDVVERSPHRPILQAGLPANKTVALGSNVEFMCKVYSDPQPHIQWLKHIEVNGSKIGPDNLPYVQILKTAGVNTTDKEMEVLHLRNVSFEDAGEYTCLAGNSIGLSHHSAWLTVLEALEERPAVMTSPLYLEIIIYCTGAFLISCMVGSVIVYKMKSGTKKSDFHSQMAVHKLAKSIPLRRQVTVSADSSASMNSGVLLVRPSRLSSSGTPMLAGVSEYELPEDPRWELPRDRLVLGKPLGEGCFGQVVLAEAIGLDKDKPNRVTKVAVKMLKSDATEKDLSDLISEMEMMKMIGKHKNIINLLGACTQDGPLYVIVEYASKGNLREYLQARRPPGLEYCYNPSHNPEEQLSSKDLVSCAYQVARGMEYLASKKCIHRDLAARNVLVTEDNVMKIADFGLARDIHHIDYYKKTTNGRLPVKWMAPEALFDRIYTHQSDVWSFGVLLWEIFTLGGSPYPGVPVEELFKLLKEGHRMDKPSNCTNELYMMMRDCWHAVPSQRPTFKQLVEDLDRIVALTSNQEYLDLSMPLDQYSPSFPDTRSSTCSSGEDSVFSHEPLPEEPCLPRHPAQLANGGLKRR

SMILES | Kd (FGFR3) [nM] | Kd (FGFR1) [nM] | IC50 [1] [µM] | IC50 [2] [µM] | IC50 [3] [µM] | IC50 [4] [µM] | Kd (FGFR3 (V555M)) [nM] | Kd (FGFR2) [nM] | Kd (FGFR4) [nM] | IC50 [5] [µM]
C[C@@H](Oc1ccc2[nH]nc(-c3ccc(N4CC(C)(OCCN5CCCC5)C4)nn3)c2c1)c1c(Cl)cncc1Cl [Example 269, (R)-5-(1-(3,5-dichloropyridin-4-yl)ethoxy)-3-(6-(3-methyl-3-(2-(pyrrolidin-1-yl)ethoxy)azetidin-1-yl)pyridazin-3-yl)-1H-indazole] | 1 to 50 | 1 to 50 | 0.0001 to 0.05 | 0.05 to 0.2 | 0.0001 to 0.05 | 0.2 to 1 |  |  |  | 
C[C@@H](Oc1ccc2[nH]nc(-c3cnc(N4CC(C)(OCCN5CCCC5)C4)c(F)c3)c2c1)c1c(Cl)cncc1Cl [Example 261, (R)-5-(1-(3,5-dichloropyridin-4-yl)ethoxy)-3-(5-fluoro-6-(3-methyl-3-(2-(pyrrolidin-1-yl)ethoxy)azetidin-1-yl)pyridin-3-yl)-1H-indazole] | 1 to 50 | 1 to 50 | 0.0001 to 0.05 | 0.05 to 0.2 | 0.0001 to 0.05 | 0.05 to 0.2 |  |  |  | 
CC(C)CN(C)C1(C)CN(c2ncc(-c3n[nH]c4ccc(O[C@H](C)c5c(Cl)cncc5Cl)cc34)cc2F)C1 [Example 245, (R)-1-(5-(5-(1-(3,5-dichloropyridin-4-yl)ethoxy)-1H-indazol-3-yl)-3-fluoropyridin-2-yl)-N-isobutyl-N,3-dimethylazetidin-3-amine] | 1 to 50 | 50 to 300 | > 1 | > 1 | 0.05 to 0.2 | > 1 |  |  |  | 
C[C@@H](Oc1ccc2[nH]nc(-c3cnc(N4CC(N)(Cc5ccnn5C)C4)c(F)c3)c2c1)c1c(Cl)cncc1Cl [Example 283, (R)-1-(5-(5-(1-(3,5-dichloropyridin-4-yl)ethoxy)-1H-indazol-3-yl)-3-fluoropyridin-2-yl)-3-((1-methyl-1H-pyrazol-5-yl)methyl)azetidin-3-amine] | 1 to 50 | 1 to 50 | 0.0001 to 0.05 | 0.0001 to 0.05 | 0.0001 to 0.05 | 0.0001 to 0.05 |  |  |  | 
CC(C)C1(N)CN(c2ncc(-c3n[nH]c4ccc(O[C@H](C)c5c(Cl)cncc5Cl)cc34)cc2F)C1 [Example 255, (R)-1-(5-(5-(1-(3,5-dichloropyridin-4-yl)ethoxy)-1H-indazol-3-yl)-3-fluoropyridin-2-yl)-3-isopropylazetidin-3-amine] | 1 to 50 | 1 to 50 | 0.0001 to 0.05 | 0.05 to 0.2 | 0.0001 to 0.05 | 0.05 to 0.2 |  |  |  | 
C[C@@H](Oc1ccc2[nH]nc(-c3ccc(N4CC(N)(Cc5ccnn5C)C4)nn3)c2c1)c1c(Cl)cncc1Cl [Example 281, (R)-1-(6-(5-(1-(3,5-dichloropyridin-4-yl)ethoxy)-1H-indazol-3-yl)pyridazin-3-yl)-3-((1-methyl-1H-pyrazol-5-yl)methyl)azetidin-3-amine] | 1 to 50 | 1 to 50 | 0.0001 to 0.05 | 0.05 to 0.2 | 0.0001 to 0.05 | 0.2 to 1 |  |  |  | 
COCCC1(N)CN(c2ncc(-c3n[nH]c4ccc(O[C@H](C)c5c(Cl)cncc5Cl)cc34)cc2F)C1 [Example 273, (R)-1-(5-(5-(1-(3,5-dichloropyridin-4-yl)ethoxy)-1H-indazol-3-yl)-3-fluoropyridin-2-yl)-3-(2-methoxy-ethyl)azetidin-3-amine] | 1 to 50 | 1 to 50 | 0.0001 to 0.05 | 0.0001 to 0.05 | 0.0001 to 0.05 | 0.0001 to 0.05 |  |  |  | 
C[C@@H](Oc1ccc2[nH]nc(-c3cnc(N4CC(N)(CC5CC5)C4)c(F)c3)c2c1)c1c(Cl)cncc1Cl [Example 262, (R)-3-(cyclopropylmethyl)-1-(5-(5-(1-(3,5-dichloropyridin-4-yl)ethoxy)-1H-indazol-3-yl)-3-fluoropyridin-2-yl)azetidin-3-amine] | 1 to 50 | 1 to 50 | 0.05 to 0.2 | 0.05 to 0.2 | 0.0001 to 0.05 | 0.2 to 1 |  |  |  | 
CC(C)CC1(N)CN(c2ncc(-c3n[nH]c4ccc(O[C@H](C)c5c(Cl)cncc5Cl)cc34)cc2F)C1 [Example 258, (R)-1-(5-(5-(1-(3,5-dichloropyridin-4-yl)ethoxy)-1H-indazol-3-yl)-3-fluoropyridin-2-yl)-3-isobutylazetidin-3-amine] | 1 to 50 | 1 to 50 | 0.05 to 0.2 | 0.2 to 1 | 0.0001 to 0.05 | 0.2 to 1 |  |  |  | 
C[C@@H](Oc1ccc2[nH]nc(-c3cnc(N4CC(C)(NCC5CC5)C4)cc3F)c2c1)c1c(Cl)cncc1Cl [Example 243, (R)—N-(cyclopropylmethyl)-1-(5-(5-(1-(3,5-dichloropyridin-4-yl)ethoxy)-1H-indazol-3-yl)-4-fluoropyridin-2-yl)-3-methylazetidin-3-amine] | 1 to 50 | 1 to 50 | 0.2 to 1 | 0.2 to 1 | 0.0001 to 0.05 | 0.05 to 0.2 |  |  |  | 
C[C@@H](Oc1ccc2[nH]nc(-c3cnc(N4CC(N)(C5CCC5)C4)c(F)c3)c2c1)c1c(Cl)cncc1Cl [Example 256, (R)-3-cyclobutyl-1-(5-(5-(1-(3,5-dichloropyridin-4-yl)ethoxy)-1H-indazol-3-yl)-3-fluoropyridin-2-yl)azetidin-3-amine] | 1 to 50 | 1 to 50 | 0.05 to 0.2 | 0.05 to 0.2 | 0.0001 to 0.05 | 0.05 to 0.2 |  |  |  | 
C[C@@H](Oc1ccc2[nH]nc(-c3cnc(N4CC(N)(c5cnn(C)c5)C4)c(F)c3)c2c1)c1c(Cl)cncc1Cl [Example 277, (R)-1-(5-(5-(1-(3,5-dichloropyridin-4-yl)ethoxy)-1H-indazol-3-yl)-3-fluoropyridin-2-yl)-3-(1-methyl-1H-pyrazol-4-yl)azetidin-3-amine] | 1 to 50 | 1 to 50 | 0.0001 to 0.05 | 0.05 to 0.2 | 0.0001 to 0.05 | 0.0001 to 0.05 |  |  |  | 
C[C@@H](Oc1ccc2[nH]nc(-c3ccc(N4CC(N)(Cc5cnn(C)c5)C4)nn3)c2c1)c1c(Cl)cncc1Cl [Example 289, (R)-1-(6-(5-(1-(3,5-dichloropyridin-4-yl)ethoxy)-1H-indazol-3-yl)pyridazin-3-yl)-3-((1-methyl-1H-pyrazol-4-yl)methyl)azetidin-3-amine] | 1 to 50 | 1 to 50 | 0.05 to 0.2 | 0.2 to 1 | 0.0001 to 0.05 | 0.2 to 1 |  |  |  | 
COc1cc2[nH]nc(-c3cnc(N4CC(C)(N5CCS(=O)(=O)CC5)C4)c(C#N)c3)c2cc1O[C@H](C)c1c(Cl)cncc1Cl [Example 334, (R)-5-(5-(1-(3,5-dichloropyridin-4-yl)ethoxy)-6-methoxy-1H-indazol-3-yl)-2-(3-(1,1-dioxidothio-morpholino)-3-methylazetidin-1-yl)nicotinonitrile] | 1 to 50 | 1 to 50 | 0.05 to 0.2 | 0.2 to 1 | 0.0001 to 0.05 |  | 1 to 50 | 1 to 50 | 1 to 50 | 0.0001 to 0.05
C[C@H](O)CNC1(C)CN(c2ncc(-c3n[nH]c4ccc(O[C@H](C)c5c(Cl)cncc5Cl)cc34)cc2C#N)C1 [Example 57, 5-(5-((R)-1-(3,5-dichloropyridin-4-yl)ethoxy)-1H-indazol-3-yl)-2-(3-(((S)-2-hydroxypropyl)amino)-3-methylazetidin-1-yl)nicotinonitrile] | 1 to 50 | 1 to 50 | 0.05 to 0.2 | 0.2 to 1 | 0.0001 to 0.05 |  | 1 to 50 | 1 to 50 | 1 to 50 | 0.0001 to 0.05
C[C@@H](Oc1ccc2[nH]nc(-c3cnc(N4CC(C)(NCC5CC5)C4)c(C#N)c3)c2c1)c1c(Cl)cncc1Cl [Example 27, 2-[3-(Cyclopropylmethylamino)-3-methyl-azetidin-1-yl]-5-[5-[(1R)-1-(3,5-dichloro-4-pyridyl)ethoxy]-1H-indazol-3-yl]pyridine-3-carbonitrile] | 1 to 50 | 1 to 50 | 0.2 to 1 | 0.2 to 1 | 0.05 to 0.2 |  | 1 to 50 | 50 to 300 | 1 to 50 | 0.05 to 0.2
COc1cc2[nH]nc(-c3cnc(N4CC(C)(N5CC6CC(C5)O6)C4)c(C#N)c3)c2cc1O[C@H](C)c1c(Cl)cncc1Cl [Example 337, 2-(3-(6-oxa-3-aza-bicyclo[3.1.1]hep-tan-3-yl)-3-methylazetidin-1-yl)-5-(5-((R)-1-(3,5-dichloropyridin-4-yl)ethoxy)-6-methoxy-1H-indazol-3-yl)nicotinonitrile] | 1 to 50 | 1 to 50 | 0.05 to 0.2 | 0.05 to 0.2 | 0.0001 to 0.05 |  | 1 to 50 | 1 to 50 | 1 to 50 | 0.0001 to 0.05
